Where two headings read alike, the source gives them in different places.
How the values were obtained:
[1] = target: wild type MLL1 four-member complex (MLL1-4C) (Homo sapiens, UniProt Q03164); experiment: MLL1 LC-MS Assay; type: biochemical
Protocol: The compounds of the present disclosure were serially and separately diluted 3-fold in DMSO to obtain a total of eight or twelve concentrations. Then the test compounds at each concentration (120 nL of each) were transferred by Mosquito into white Proxiplate plus 384-well microplate (PerkinElmer). Solutions (6 μL) of 60 nM wild type MLL1 four-member complex (MLL1-4C) and 5 μM SAM in the reaction buffer (20 mM Tris-HCl, pH 8.0, 0.01% Tween 20, 1 mM DTT, 10 mM MgCl2, 0.01% BSA) were added to the wells that were then incubated with the test compound for 20 min. A 6 μL solution of 20 μM of the peptide substrate H3K4me0 (histone H3[1-21]-Biotin) in the reaction buffer was added to initiate each reaction. The final components in the reaction solution include 30 nM MLL1-4C, 2.5 μM SAM, and 10 μM H3K4me0 with varying concentration of the compounds. A positive control consisted of 30 nM MLL1-4C, 2.5 μM SAM, and 10 μM substrate in the absence of the test compound, and a negative control consisted of 2.5 μM SAM, and 10 μM substrate only. Each reaction was incubated at rt for 120 min, then stopped by addition of 3 μL per of quench solution (2.5% TFA with 320 nM d4-SAH). The reaction mixture was centrifuged (Eppendorf centrifuge 5810, Rotor A-4-62) for 2 min at 2000 rpm. The SAH production from the enzymatic assays were monitored by LC-MS/MS on an API 4000 triple quadrupole mass spec with Turbolon Spray (Applied Biosystem) coupled with Prominenece UFLC (Shimazu). The level of SAH production were then normalized based on the values coming from the positive and negative controls to give percent enzyme activities. The data were then fit to a dose response equation using the program Helios (Novartis) to get the IC50 values of the test compounds.

H3K4me3 in MV4-11 cells = experiment: MV4-11 H3K4me3 Cellular ELISA Assay; type: cell-based; settings: Homo sapiens, MV4-11, 48 h
Protocol: MV4-11 H3K4me3 Cellular ELISA Assay
MV4-11 (ATCC® CRL-9591™) was cultured with RPMI1640 medium (Thermo Fisher Scientific, cat #11875) supplemented with 10% FBS (Thermo Fisher Scientific, cat #10099141) and 50 U/ml Penicillin-Streptomycin (Thermo Fisher Scientific, cat #10378016) in humidified incubator at 37° C., 5% CO2.
200 nL compounds dissolved in DMSO were serially diluted at 1:3 ratio for 12 points starting from 10 mM and dispensed into each wells of cell culture plates (PDL-coated ViewPlate-384 Black, FTC, PerkinElmer, #6007710). 3,750 MV4-11 cells in 40 μL culture medium were seeded into each well and treated with desired concentration for 48 hours. After treatment, wash cells with cold phosphate based buffer (PBS, pH 7.4) and aspirate the remaining PBS buffer. Crude histone lysate was extracted by 40 μL 0.5M HCl for 1 hour in 4° C. following neutralization by adding 32 μL neutralization buffer (0.5M Sodium phosphate dibasic, pH ˜12.5, 1.25 mM Dithiothreitol, Promega #V3151, Protease Inhibitor Cocktail, Sigma #8340) for each well. 5 μL and 20 μL of histone lysate was loaded to ELISA plate (384 Well Plates, PE HB, White, 6005620) for detection of total H3 and H3K4me3, respectively. Shake the plates gently in 4° C. for overnight. After histone binding, plates were washed with 80 μL PBS/T (PBS with 0.05% Tween-20) and blocked with 50 μL 3% BSA diluted in PBS/T per well for 1 hour. Incubate wells with primary antibody for 1 hour at room temperature using anti-H3K4me3 (CST #9727) and anti-total H3 (CST #9715) diluted 1:2000 in 3% BSA. Plates were then washed with PBS/T for 3 times and incubated with horseradish peroxidase (HRP) conjugated secondary antibody (CST #7074, 1:5000) for 1 hour at room temperature. The abundance of H3K4me3 and total H3 were measured by ECL substrates chemiluminescence (Pierce, #34080) on a plate reader (PerkinElmer EnVison 2104 Mutilable Reader). Percentage inhibition was calculated against DMSO control after normalization of H3K4me3 signal to H3 signal for individual samples. The data were then fit to a dose response curve using GraphPad Prism for IC50 calculation.

MV4-11 cells = experiment: MV4-11 6-Day Cell Growth CTG (CellTiter-Glo) Assay; type: cell-based; settings: Homo sapiens, MV4-11, 144 h, MV4-11 cell growth CellTiter-Glo, 6 days
Protocol: MV4-11 6-Day Cell Growth CTG (CellTiter-Glo) Assay
Acute myeloid leukemia cell MV4-11 (ATCC® CRL-9591™) was cultured with RPMI 1640 medium (Thermo Fisher Scientific, cat #11875) supplemented with 10% FBS (Thermo Fisher Scientific, cat #10099141) in humidified incubator at 37° C., 5% CO2. To assess the effect of MLL1 inhibition on cell growth, the compound of the present invention was dissolved in DMSO and serially diluted at 1:3 for 12 points starting from 10 mM then 200 nL for the replicate of each dose per well was dispensed to Viewplate-384 Black (Perkin Elmer). Exponentially growing MV4-11 cells were seeded at the density of 300 cells per well in 40 μL to the plate, so the final compound working concentration starts from 50 μM. After 6 days, 40 μL CellTiter-Glo (Promega, cat #G7573) was added into the cell culture well and luminescence was read with Envision (Perkin Elmer) to determine the viable cells. The percentage inhibition was calculated against the samples treated with DMSO only and the data were used for dose response curve fitting in GraphPad Prism to get the IC50 of representative compound of present invention, which reflects the inhibition of MLL1 activity.

Structure (SMILES): Nc1ncnc2c1ncn2Cc1c(N2CC[C@](N)(C(=O)NCCc3c[nH]cn3)C2)ccc(F)c1C(F)(F)F [Example 121]
- IC50 ([1]; read-out: LCMS): < 50 nM
- IC50 (H3K4me3 in MV4-11 cells): < 1900 nM
- IC50 (MV4-11 cells): < 2000 nM

Structure (SMILES): Nc1ncnc2c1ncn2Cc1c(N2CC[C@](N)(C(=O)NCC3CC3(F)F)C2)ccc(F)c1C(F)(F)F (stereo partly drawn) [Example 122]
- IC50 ([1]; read-out: LCMS): < 50 nM
- IC50 (H3K4me3 in MV4-11 cells): < 1900 nM
- IC50 (MV4-11 cells): < 2000 nM

Structure (SMILES): C[C@@H](NC(=O)[C@@]1(N)CCN(c2ccc(F)c(C(F)(F)F)c2Cn2cnc3c(N)ncnc32)C1)C1CCOCC1 [Example 124]
- IC50 ([1]; read-out: LCMS): 50 to 100 nM
- IC50 (H3K4me3 in MV4-11 cells): < 1900 nM
- IC50 (MV4-11 cells): < 2000 nM

Structure (SMILES): Nc1ncnc2c1ncn2Cc1c(N2CC[C@](N)(C(=O)NC3CC34CCOCC4)C2)ccc(F)c1C(F)(F)F (stereo partly drawn) [Example 126]
- IC50 ([1]; read-out: LCMS): 50 to 100 nM
- IC50 (H3K4me3 in MV4-11 cells): < 1900 nM
- IC50 (MV4-11 cells): < 2000 nM

Structure (SMILES): Nc1ncnc2c1ncn2Cc1c(N2CC[C@](N)(C(=O)NC3CCOC3)C2)ccc(F)c1C(F)(F)F (stereo partly drawn) [Example 129]
- IC50 ([1]; read-out: LCMS): < 50 nM
- IC50 (H3K4me3 in MV4-11 cells): < 1900 nM
- IC50 (MV4-11 cells): < 2000 nM

Structure (SMILES): COC1CC2(C1)CC2NC(=O)[C@@]1(N)CCN(c2ccc(F)c(C(F)(F)F)c2Cn2cnc3c(N)ncnc32)C1 (stereo partly drawn) [Example 130]
- IC50 ([1]; read-out: LCMS): < 50 nM
- IC50 (H3K4me3 in MV4-11 cells): < 1900 nM
- IC50 (MV4-11 cells): < 2000 nM

Structure (SMILES): Nc1ncnc2c1ncn2Cc1c(N2CC[C@](N)(C(=O)N3CCn4nccc4C3)C2)ccc(F)c1C(F)(F)F [Example 137]
- IC50 ([1]; read-out: LCMS): 50 to 100 nM
- IC50 (H3K4me3 in MV4-11 cells): < 1900 nM
- IC50 (MV4-11 cells): 2000 to 3000 nM

Structure (SMILES): CCCNC(=O)CCNC(=O)[C@@]1(N)CCN(c2ccc(F)c(C(F)(F)F)c2Cn2cnc3c(N)ncnc32)C1 [Example 139]
- IC50 ([1]; read-out: LCMS): 50 to 100 nM
- IC50 (H3K4me3 in MV4-11 cells): < 1900 nM
- IC50 (MV4-11 cells): < 2000 nM

Structure (SMILES): Nc1ncnc2c1ncn2Cc1c(N2CC[C@](N)(c3nnn[nH]3)C2)ccc(Cl)c1I [Example 156]
- IC50 ([1]; read-out: MLL1 LCMS): 50 to 100 nM
- IC50 (H3K4me3 in MV4-11 cells): < 1900 nM
- IC50 (MV4-11 cells): < 2000 nM

Structure (SMILES): Nc1ncnc2c1ncn2Cc1c(N2CC[C@](N)(C(=O)NC3CC3)C2)ccc(F)c1C1CCCC1 [Example 158]
- IC50 ([1]; read-out: MLL1 LCMS): < 50 nM
- IC50 (H3K4me3 in MV4-11 cells): < 1900 nM
- IC50 (MV4-11 cells): < 2000 nM

Structure (SMILES): [2H]C([2H])([2H])C([2H])([2H])NC(=O)[C@@]1(N)CCN(c2cc(Cl)cc(Br)c2Cn2cnc3c(N)ncnc32)C1 [Example 159]
- IC50 ([1]; read-out: MLL1 LCMS): < 50 nM
- IC50 (H3K4me3 in MV4-11 cells): < 1900 nM
- IC50 (MV4-11 cells): 2000 to 3000 nM

Structure (SMILES): Nc1ncnc2c1ncn2Cc1c(N2CCC(N)(C(=O)NC3CC3)C2)ccc(C(F)(F)F)c1Cl (stereo not drawn) [Example 160]
- IC50 ([1]; read-out: MLL1 LCMS): 50 to 100 nM
- IC50 (H3K4me3 in MV4-11 cells): < 1900 nM
- IC50 (MV4-11 cells): < 2000 nM

Structure (SMILES): CCc1cc(Cl)cc(N2CC[C@](N)(C(=O)NC(C)C)C2)c1Cn1cnc2c(N)ncnc21 [Example 161]
- IC50 ([1]; read-out: MLL1 LCMS): < 50 nM
- IC50 (H3K4me3 in MV4-11 cells): < 1900 nM
- IC50 (MV4-11 cells): < 2000 nM

Structure (SMILES): COCc1c(Cl)cc(Cl)c(N2CC[C@](N)(C(=O)NC3CC3)C2)c1Cn1cnc2c(N)ncnc21 [Example 162]
- IC50 ([1]; read-out: MLL1 LCMS): 50 to 100 nM
- IC50 (H3K4me3 in MV4-11 cells): < 1900 nM
- IC50 (MV4-11 cells): 2000 to 3000 nM

Reference: patent US20220380371A1, “MLL1 INHIBITORS AND ANTI-CANCER AGENTS” (NOVARTIS AG, priority 2019, published 2022)
